Legend:
Test in all cases: relative viability (nuclei count vs DMSO), 5 days (fraction); higher = more cells survive
Quizartinib + Alpelisib = compound: CC(C)(C)c1cc(NC(=O)Nc2ccc(-c3cn4c(n3)sc3cc(OCCN5CCOCC5)ccc34)cc2)no1 [Quizartinib] + Cc1nc(NC(=O)N2CCC[C@H]2C(N)=O)sc1-c1ccnc(C(C)(C)C(F)(F)F)c1 [Alpelisib] (partner 2 µM)
Summary of the method: (§1)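 Medians of duplicate plates are given as relative viability. That measure is the nuclei count in treated wells divided by the count in vehicle wells. Counts were taken on 4× images of lung cancer cell lines in 1536-well plates, 5 days after pin-tool dosing the day after seeding with one drug alone or a fixed anchor-drug dose plus five library-drug doses (not always all listed) in √10 steps.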

YM155 + Bortezomib = compound: COCC[n+]1c2c(n(Cc3cnccn3)c1C)C(=O)c1ccccc1C2=O [YM155] + CC(C)C[C@H](NC(=O)[C@H](Cc1ccccc1)NC(=O)c1cnccn1)B(O)O [Bortezomib] (partner 0.002 µM)
Summary of the method: as §1

YM155 = compound: COCC[n+]1c2c(n(Cc3cnccn3)c1C)C(=O)c1ccccc1C2=O [YM155]
Summary of the method: (§2)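 Only plates meeting two conditions passed: control CV below 25% and at least one doubling. Lung cancer cell lines, kept overnight at 37 °C in 1536-well plates, were pinned with five library-drug doses (not always all listed) √10 apart on vehicle-anchored plates and grown 5 days without medium change. A one-step fix, permeabilisation and Hoechst stain preceded 4× imaging and MetaXpress nuclear counting. Viability equals treated-well nuclei divided by vehicle-well nuclei, as the median over plates.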

Quizartinib = compound: CC(C)(C)c1cc(NC(=O)Nc2ccc(-c3cn4c(n3)sc3cc(OCCN5CCOCC5)ccc34)cc2)no1 [Quizartinib]
Summary of the method: as §2

LU99A
relative viability (Quizartinib + Alpelisib; first compound 0.001 µM): 0.448 | relative viability (Quizartinib + Alpelisib; first compound 0.003162 µM): 0.512 | relative viability (Quizartinib + Alpelisib; first compound 0.01 µM): 0.627 | relative viability (Quizartinib + Alpelisib; first compound 0.03162 µM): 0.517 | relative viability (Quizartinib + Alpelisib; first compound 0.1 µM): 0.431 | relative viability (YM155 + Bortezomib; first compound 0.002 µM): 1.17 | relative viability (YM155 + Bortezomib; first compound 0.006325 µM): 1.11 | relative viability (YM155 + Bortezomib; first compound 0.02 µM): 1.16 | relative viability (YM155 + Bortezomib; first compound 0.06325 µM): 0.965 | relative viability (YM155; 0.002 µM): 1.01 | relative viability (YM155; 0.006325 µM): 1.01 | relative viability (YM155; 0.02 µM): 0.984 | relative viability (YM155; 0.06325 µM): 0.938 | relative viability (Quizartinib; 0.001 µM): 0.889 | relative viability (Quizartinib; 0.003162 µM): 0.906 | relative viability (Quizartinib; 0.01 µM): 1.05 | relative viability (Quizartinib; 0.03162 µM): 1.09 | relative viability (Quizartinib; 0.1 µM): 0.842

LXF-289
relative viability (Quizartinib + Alpelisib; first compound 0.001 µM): 0.992 | relative viability (Quizartinib + Alpelisib; first compound 0.003162 µM): 0.999 | relative viability (Quizartinib + Alpelisib; first compound 0.01 µM): 1.1 | relative viability (Quizartinib + Alpelisib; first compound 0.03162 µM): 1.01 | relative viability (Quizartinib + Alpelisib; first compound 0.1 µM): 0.947 | relative viability (YM155 + Bortezomib; first compound 0.002 µM): 0.944 | relative viability (YM155 + Bortezomib; first compound 0.006325 µM): 0.93 | relative viability (YM155 + Bortezomib; first compound 0.02 µM): 0.989 | relative viability (YM155 + Bortezomib; first compound 0.06325 µM): 1.02 | relative viability (YM155; 0.002 µM): 0.998 | relative viability (YM155; 0.006325 µM): 1.01 | relative viability (YM155; 0.02 µM): 1.04 | relative viability (YM155; 0.06325 µM): 0.973 | relative viability (Quizartinib; 0.001 µM): 0.924 | relative viability (Quizartinib; 0.003162 µM): 0.976 | relative viability (Quizartinib; 0.01 µM): 1.05 | relative viability (Quizartinib; 0.03162 µM): 0.957 | relative viability (Quizartinib; 0.1 µM): 0.998

NCI-H23
relative viability (Quizartinib + Alpelisib; first compound 0.003162 µM): 0.556 | relative viability (Quizartinib + Alpelisib; first compound 0.01 µM): 0.679 | relative viability (Quizartinib + Alpelisib; first compound 0.03162 µM): 0.645 | relative viability (Quizartinib + Alpelisib; first compound 0.1 µM): 0.687 | relative viability (YM155 + Bortezomib; first compound 0.002 µM): 0.7 | relative viability (YM155 + Bortezomib; first compound 0.006325 µM): 1.05 | relative viability (YM155 + Bortezomib; first compound 0.02 µM): 0.929 | relative viability (YM155 + Bortezomib; first compound 0.06325 µM): 0.455 | relative viability (YM155; 0.002 µM): 0.734 | relative viability (YM155; 0.006325 µM): 0.925 | relative viability (YM155; 0.02 µM): 0.957 | relative viability (YM155; 0.06325 µM): 0.529 | relative viability (Quizartinib; 0.001 µM): 0.742 | relative viability (Quizartinib; 0.003162 µM): 1.01 | relative viability (Quizartinib; 0.01 µM): 0.918 | relative viability (Quizartinib; 0.03162 µM): 0.896 | relative viability (Quizartinib; 0.1 µM): 1.05

NCI-H322M
relative viability (Quizartinib + Alpelisib; first compound 0.001 µM): 0.707 | relative viability (Quizartinib + Alpelisib; first compound 0.003162 µM): 0.779 | relative viability (Quizartinib + Alpelisib; first compound 0.01 µM): 0.799 | relative viability (Quizartinib + Alpelisib; first compound 0.03162 µM): 0.758 | relative viability (Quizartinib + Alpelisib; first compound 0.1 µM): 0.787 | relative viability (YM155 + Bortezomib; first compound 0.002 µM): 1.22 | relative viability (YM155 + Bortezomib; first compound 0.006325 µM): 1.18 | relative viability (YM155 + Bortezomib; first compound 0.02 µM): 1.19 | relative viability (YM155 + Bortezomib; first compound 0.06325 µM): 1.37 | relative viability (YM155; 0.002 µM): 0.92 | relative viability (YM155; 0.006325 µM): 0.982 | relative viability (YM155; 0.02 µM): 1 | relative viability (YM155; 0.06325 µM): 1.03 | relative viability (Quizartinib; 0.001 µM): 0.952 | relative viability (Quizartinib; 0.003162 µM): 1.03 | relative viability (Quizartinib; 0.01 µM): 0.916 | relative viability (Quizartinib; 0.03162 µM): 0.965 | relative viability (Quizartinib; 0.1 µM): 0.978

NCI-H441
relative viability (Quizartinib + Alpelisib; first compound 0.001 µM): 0.656 | relative viability (Quizartinib + Alpelisib; first compound 0.003162 µM): 0.541 | relative viability (Quizartinib + Alpelisib; first compound 0.01 µM): 0.885 | relative viability (Quizartinib + Alpelisib; first compound 0.03162 µM): 0.733 | relative viability (Quizartinib + Alpelisib; first compound 0.1 µM): 0.779 | relative viability (YM155 + Bortezomib; first compound 0.002 µM): 0.452 | relative viability (YM155 + Bortezomib; first compound 0.006325 µM): 0.407 | relative viability (YM155 + Bortezomib; first compound 0.02 µM): 0.466 | relative viability (YM155 + Bortezomib; first compound 0.06325 µM): 0.446 | relative viability (YM155; 0.002 µM): 0.9 | relative viability (YM155; 0.006325 µM): 1.15 | relative viability (YM155; 0.02 µM): 0.795 | relative viability (YM155; 0.06325 µM): 0.759 | relative viability (Quizartinib; 0.001 µM): 0.919 | relative viability (Quizartinib; 0.003162 µM): 0.946 | relative viability (Quizartinib; 0.01 µM): 0.945 | relative viability (Quizartinib; 0.03162 µM): 0.764 | relative viability (Quizartinib; 0.1 µM): 1.14

NCI-H460
relative viability (Quizartinib + Alpelisib; first compound 0.001 µM): 0.358 | relative viability (Quizartinib + Alpelisib; first compound 0.003162 µM): 0.458 | relative viability (Quizartinib + Alpelisib; first compound 0.01 µM): 0.463 | relative viability (Quizartinib + Alpelisib; first compound 0.1 µM): 0.406 | relative viability (YM155 + Bortezomib; first compound 0.002 µM): 0.991 | relative viability (YM155 + Bortezomib; first compound 0.006325 µM): 1.24 | relative viability (YM155 + Bortezomib; first compound 0.02 µM): 1.19 | relative viability (YM155 + Bortezomib; first compound 0.06325 µM): 1.04 | relative viability (YM155; 0.002 µM): 0.984 | relative viability (YM155; 0.006325 µM): 1.02 | relative viability (YM155; 0.02 µM): 0.997 | relative viability (YM155; 0.06325 µM): 0.988 | relative viability (Quizartinib; 0.001 µM): 0.811 | relative viability (Quizartinib; 0.003162 µM): 0.957 | relative viability (Quizartinib; 0.01 µM): 1.02 | relative viability (Quizartinib; 0.03162 µM): 0.78 | relative viability (Quizartinib; 0.1 µM): 0.942

NCI-H520
relative viability (Quizartinib + Alpelisib; first compound 0.001 µM): 0.792 | relative viability (Quizartinib + Alpelisib; first compound 0.003162 µM): 0.768 | relative viability (Quizartinib + Alpelisib; first compound 0.01 µM): 0.929 | relative viability (Quizartinib + Alpelisib; first compound 0.03162 µM): 0.837 | relative viability (Quizartinib + Alpelisib; first compound 0.1 µM): 0.597 | relative viability (YM155 + Bortezomib; first compound 0.002 µM): 0.586 | relative viability (YM155 + Bortezomib; first compound 0.006325 µM): 0.62 | relative viability (YM155 + Bortezomib; first compound 0.02 µM): 0.653 | relative viability (YM155 + Bortezomib; first compound 0.06325 µM): 1 | relative viability (YM155; 0.002 µM): 1.01 | relative viability (YM155; 0.006325 µM): 1.03 | relative viability (YM155; 0.02 µM): 1.05 | relative viability (YM155; 0.06325 µM): 1.17 | relative viability (Quizartinib; 0.001 µM): 0.73 | relative viability (Quizartinib; 0.003162 µM): 0.867 | relative viability (Quizartinib; 0.01 µM): 0.96 | relative viability (Quizartinib; 0.03162 µM): 0.903 | relative viability (Quizartinib; 0.1 µM): 0.921

NCI-H596
relative viability (Quizartinib + Alpelisib; first compound 0.001 µM): 0.521 | relative viability (Quizartinib + Alpelisib; first compound 0.003162 µM): 0.498 | relative viability (Quizartinib + Alpelisib; first compound 0.01 µM): 1.34 | relative viability (Quizartinib + Alpelisib; first compound 0.03162 µM): 0.407 | relative viability (Quizartinib + Alpelisib; first compound 0.1 µM): 0.396 | relative viability (YM155 + Bortezomib; first compound 0.006325 µM): 1.18 | relative viability (YM155 + Bortezomib; first compound 0.02 µM): 0.946 | relative viability (YM155 + Bortezomib; first compound 0.06325 µM): 1.19 | relative viability (YM155; 0.002 µM): 0.962 | relative viability (YM155; 0.006325 µM): 0.989 | relative viability (YM155; 0.02 µM): 1.15 | relative viability (YM155; 0.06325 µM): 1.06 | relative viability (Quizartinib; 0.001 µM): 1.05 | relative viability (Quizartinib; 0.003162 µM): 1.03 | relative viability (Quizartinib; 0.01 µM): 0.99 | relative viability (Quizartinib; 0.03162 µM): 0.875 | relative viability (Quizartinib; 0.1 µM): 1.04

NCI-H647
relative viability (Quizartinib + Alpelisib; first compound 0.001 µM): 1.01 | relative viability (Quizartinib + Alpelisib; first compound 0.003162 µM): 1.06 | relative viability (Quizartinib + Alpelisib; first compound 0.01 µM): 1.25 | relative viability (Quizartinib + Alpelisib; first compound 0.03162 µM): 1.13 | relative viability (Quizartinib + Alpelisib; first compound 0.1 µM): 1.33 | relative viability (YM155 + Bortezomib; first compound 0.002 µM): 0.777 | relative viability (YM155 + Bortezomib; first compound 0.006325 µM): 1 | relative viability (YM155 + Bortezomib; first compound 0.02 µM): 0.826 | relative viability (YM155 + Bortezomib; first compound 0.06325 µM): 0.792 | relative viability (YM155; 0.002 µM): 0.857 | relative viability (YM155; 0.006325 µM): 0.89 | relative viability (YM155; 0.02 µM): 0.925 | relative viability (YM155; 0.06325 µM): 0.538 | relative viability (Quizartinib; 0.001 µM): 0.794 | relative viability (Quizartinib; 0.003162 µM): 0.946 | relative viability (Quizartinib; 0.01 µM): 1.09 | relative viability (Quizartinib; 0.03162 µM): 0.855 | relative viability (Quizartinib; 0.1 µM): 1.09
